Experiments:
[1] = system: PCP-induced hyperactivity; test: Phencyclidine-induced hyperactivity in rats (sarpogrelate and dextromethorphan); type: in vivo, rat
[2] = system: hyperactivity in rats after olfactory bulbectomy; test: Motor hyperactivity induced by olfactory bulbectomy in rats; type: in vivo, rat
Procedure: In a dedicated set of studies, adult male Sprague-Dawley rats (Charles River, Germany) were subjected to bilateral olfactory bulbectomy performed under ketamine/xylasine anesthesia. The animals were allowed to recover for 14 days following surgery while being handled daily to eliminate any aggressiveness that would otherwise arise. Sham-operated animals were treated in the same way but the olfactory bulbs were left intact. Drugs administration and locomotor activity testing were performed 4 times for each rat with 72 hours break between consecutive test sessions. Prior to each test session, animals were first treated with dextromethorphan (0, 15, 30 or 60 mg/kg. per os) followed 15 min later by sarpogrelate (1, 3 and 10 mg/kg, intraperitoneal) and another 15 min later were placed into Opto-Varimex cages for locomotor activity recording over 30 min. Hyperactivity in rats after olfactory bulbectomy is observed mostly during the early portion of the test sessions. […] Post hoc pairwise comparisons (Sidak's multiple comparisons test) confirmed that significant differences between bulbectomized and sham-operated were observed only in rats that were pretreated prior to the test with vehicle instead of sarpogrelate.

CYP2D6 [3] = molecular target: T1, CYP2D6 (Homo sapiens (Human), UniProt P10635); test: Dextromethorphan O-demethylase activity in human liver microsomes; type: biochemical
Procedure: Dextromethorphan O-demethylase activity was determined in human liver microsomes. […] The incubation mixtures contained pooled human liver microsomes (final concentrations: 0.25 mg/ml), dextromethorphan, and a NADPH-generating system (1.3 mM NADP+, 3.3 mM glucose 6-phosphate, 3.3 mM MgCl2, and 0.4 U/ml glucose-6-phosphate dehydrogenase). […] All incubations were performed in triplicate, and mean values were used for analysis. […] Both sarpogrelate enantiomers inhibited CYP2D6-mediated dextromethorphan O-demethylation (Table 4).

5-HT2A receptors [4] = molecular target: T2, 5-HT2A receptors (Homo sapiens (Human), UniProt P28223); test: 5-HT2A receptor antagonist radioligand binding ([3H]ketanserin)
Procedure: HEK-293 cells expressing human recombinant 5HT2A receptor were used in the antagonist radioligand binding studies. […] The inhibition constants (Ki) were calculated using the Cheng Prusoff equation. Both sarpogrelate enantiomers were potent inhibitors of [3H]ketanserin binding (Table 1). M1 enantiomers also potently bind to 5HT2A receptors with the Ki values that are approximately one order of magnitude higher than those of sarpogrelate enantiomers (Table 1). There are no meaningful differences between enantiomers in terms of 5-HT2A receptor binding for sarpogrelate or its main metabolite.
5HT2a ASSAY: Evaluation of the affinity of compounds for the human 5-HT2A receptor in transfected HEK-293 cells determined in a radioligand binding assay. Cell membrane homogenates (30-50 μg protein) were incubated 15 min at 37° C. with 0.5 nM [3H]ketanserin in the absence or presence of the test compound in a buffer containing 50 mM Tris-HCl (pH 7.4). Nonspecific binding was determined in the presence of 1 μM ketanserin. Following incubation, the samples were filtered rapidly under vacuum through glass fiber filters presoaked with 0.3% PEI and rinsed several times with ice-cold 50 mM Tris-HCl using a 96-sample cell harvester. The filters were dried then counted for radioactivity in a scintillation counter using a scintillation cocktail (WO2005013952A1, EP1500391A1[ab1], incorporated in its entirety by reference).

[5] = Blood glucose levels and oral glucose tolerance in rats; type: in vivo, rat; settings: dextromethorphan administered in combination with sarpogrelate
Procedure: Test substances were administered to male Wistar (Han) rats (180-280 g at the beginning of the experiments; Janvier Labs) housed in groups under free access to food and water. After overnight food deprivation, the tip of the tail was cut, each rat was weighed, housed individually and left without stress in a quiet room. Approximately 1 hour later, baseline blood glucose was measured from a drop of blood collected from the tail tip, using a commercially available glucose-meter (OneTouch®, Lifescan) and then rats received intraperitoneal injection of sarpogrelate and/or dextromethorphan and 30 min later blood glucose was measured again and rats immediately challenged with glucose at 2 g/kg by oral gavage. Then, blood glucose was measured at 6 time-points until 180 minutes post-glucose challenge.

2D6 = 2D6 (Homo sapiens (Human), UniProt P10635); settings: in vivo; cited from earlier work
[6] = Pharmacokinetic study of sarpogrelate hydrochloride i.v. in rats; type: in vivo, rat; settings: rat, in vivo; 2 mg/kg intravenous bolus, male Wistar rats, plasma; read-out: Apparent terminal elimination half-life (converted)
Procedure: Pharmacokinetic study was performed in male Wistar rats equipped with the jugular vein cannulas. Sarpogrelate hydrochloride was formulated in Pharmasolv: PBS buffer (5:95) mixture and administered at the dose of 2 mg/kg intravenously. Blood samples were collected from the jugular vein using heparin as anticoagulant at the scheduled time-points: 5 min, 15 min, 30 min, 1 h, 1.5 h, 2 h, 4 h, and 6 h. An LC-MS/MS bioanalytical method was used for the simultaneous quantification of sarpogrelate and M1 in plasma samples. […] Formation of M1 metabolite of sarpogrelate was rapid as the highest M1 concentrations were measured at the first sampling time points.

5-HT2A receptors [7] = molecular target: T2, 5-HT2A receptors; settings: compared with ritanserin; cited from earlier work
DOI-induced head shakes = DOI-induced head shakes in rats; type: in vivo, rat; settings: 0.3, 1 and 3 mg/kg 30 min prior to DOI 3 mg/kg; Sprague-Dawley rats
CYP2D6 [8] = molecular target: T1, CYP2D6; settings: cited from earlier work
[9] = rat, in vivo, cited from earlier work
CYP2D6 [10] = molecular target: T1, CYP2D6; settings: microsomes
Procedure: Dextromethorphan O-demethylase activity is determined in human liver microsomes. […] The incubation mixtures contain pooled human liver microsomes, dextromethorphan, and a NADPH-generating system. After incubation and centrifugation, the supernatant is diluted up to 100-fold with acetonitrile and then injected into the LC-MS/MS system. All incubations are performed in triplicate, and mean values are used for analysis. The IC50 values (concentration causing a half-maximal inhibition of control specific binding) and Hill coefficients (nH) are determined using methods such as non-linear regression analysis of the competition curves generated with mean replicate values using Hill equation curve fitting.

[11] = system: immobility induced by tail suspension; test: Tail suspension test in mice; type: in vivo, mouse; settings: ritanserin with effective dose of memantine 10 mg/kg
Procedure: Tail suspension is one of the classical tests used to study antidepressant drugs and was also applied to evaluate antidepressant-like effects of NMDA receptor channel blockers (Kos T et al., Effect of 5-HT3 receptor antagonist MDL 72222 on behaviors induced by ketamine in rats and mice. European Neuropsychopharmacology (2006) 16:297-310). Mice were transferred from the housing room to the testing area in their home cages and allowed to adapt to the new environment for at least 1 h before drug treatment. Immobility was induced by tail suspension whereby mice were attached individually on a paper adhesive tape, 65 cm above the table top. The tape was placed approximately 1 cm from the tip of the tail. Animals were suspended for 6 min and the duration of immobility was recorded. Mice were considered immobile only when they were completely motionless. […]

T1 sequence (P10635 whole entry): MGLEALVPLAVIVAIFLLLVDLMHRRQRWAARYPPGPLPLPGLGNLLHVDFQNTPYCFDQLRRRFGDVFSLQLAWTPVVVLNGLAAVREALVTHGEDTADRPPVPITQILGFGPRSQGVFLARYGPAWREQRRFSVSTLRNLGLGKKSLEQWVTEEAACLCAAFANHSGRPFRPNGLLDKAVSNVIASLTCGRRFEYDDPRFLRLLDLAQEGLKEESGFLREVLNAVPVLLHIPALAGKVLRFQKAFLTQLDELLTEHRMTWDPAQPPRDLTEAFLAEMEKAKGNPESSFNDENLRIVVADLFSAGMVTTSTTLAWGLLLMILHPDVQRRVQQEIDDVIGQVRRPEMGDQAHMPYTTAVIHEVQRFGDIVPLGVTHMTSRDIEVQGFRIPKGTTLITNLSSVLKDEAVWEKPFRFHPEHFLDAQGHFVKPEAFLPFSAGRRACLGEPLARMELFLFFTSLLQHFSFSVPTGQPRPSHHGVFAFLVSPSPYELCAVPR
T2 sequence (P28223 whole entry): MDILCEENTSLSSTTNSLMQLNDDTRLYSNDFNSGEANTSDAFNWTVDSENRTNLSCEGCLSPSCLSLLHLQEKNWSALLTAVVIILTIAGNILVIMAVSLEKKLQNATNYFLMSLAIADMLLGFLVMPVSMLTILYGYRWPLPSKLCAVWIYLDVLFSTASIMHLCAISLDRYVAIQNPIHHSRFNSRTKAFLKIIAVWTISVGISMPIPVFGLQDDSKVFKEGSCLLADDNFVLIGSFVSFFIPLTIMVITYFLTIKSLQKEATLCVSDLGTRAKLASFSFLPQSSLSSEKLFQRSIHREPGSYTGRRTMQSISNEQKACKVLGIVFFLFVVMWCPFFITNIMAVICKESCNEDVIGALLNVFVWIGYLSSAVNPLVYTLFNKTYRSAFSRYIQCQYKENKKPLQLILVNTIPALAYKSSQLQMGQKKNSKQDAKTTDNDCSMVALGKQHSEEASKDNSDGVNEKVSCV
2D6, sequence (P10635 whole entry): as the sequence (P10635 whole entry) above

COc1cccc(CCc2ccccc2OCC(CN(C)C)OC(=O)CCC(=O)O)c1 (racemic) [Compound 50, 4-((1-(dimethylamino)-3-(2-(3-methoxyphenethyl)phenoxy)propan-2-yl)oxy)-4-oxobutanoic acid]
ANOVA interaction between dose of sarpogrelate and dose of dextromethorphan ([1]; PCP 5 mg/kg s.c., 60-120 min, listed as sarpogrelate racemate): significant interaction | activity in PCP-treated rats ([1]; given in the absence of dextromethorphan): neither sarpogrelate racemate nor sarpogrelate enantiomers reduced activity | motor hyperactivity in PCP-treated rats ([1]; in the presence of dextromethorphan, racemate 3 mg/kg, (−) sarpogrelate 1 or 3 mg/kg i.p., PCP 5 mg/kg s.c., 60-120 min): inhibited motor hyperactivity in PCP-treated rats | activity of sham-operated rats ([2]; doses with anti-hyperactivity effects): do not affect activity of sham-operated rats | time in ambulations of bulbectomized rats ([2]; sarpogrelate 3 or 10 mg/kg i.p., first 15 min of the test): spent less time in ambulations | IC50 (CYP2D6 [3]): 1200 nM | Ki (5-HT2A receptors [4]; Ki calculated using the Cheng Prusoff equation): 5.01 nM | IC50 (5-HT2A receptors [4]; inhibition of [3H]ketanserin binding, HEK-293 cells expressing human recombinant 5HT2A receptor): 9.6 nM | effect of dextromethorphan on blood glucose level [5]: reversed | classification as 2D6 inhibitor (2D6): weak 2D6 inhibitor | increase in the substrate AUC (2D6): less than 2 fold | half-life [6]: 1.21 ± 0.159 h | affinity for 5-HT2A receptors (5-HT2A receptors [7]): the same affinity as ritanserin | frequency of DOI-induced head shakes (DOI-induced head shakes): reduced | inhibition type (Dixon plots) (CYP2D6 [8]): fit well to all competitive inhibition types

CN(C)CCO[C@]1(c2ccccc2)C[C@H]2CC[C@]1(C)C2(C)C [Compound 829, N,N-dimethyl-2-[[(1R,3S,4R)-4,7,7-trimethyl-3-phenyl-3-bicyclo[2.2.1]heptanyl]oxy]ethanamine]
t(max) ([9]; po): 1.0 h | AUC (0.96) for H-3 relative to C-14 (times higher) [9]: 10-15 times | concentrations in the hypophysis relative to plasma and brain tissues [9]: at least two times higher | entry into brain tissues [9]: intact molecules entered brain tissues from the circulation | ratio of AUC of H-3-labelled compound over C-14 [9]: 50-60 | time of peak characteristic of enterohepatic cycle [9]: 12 h | time of peak concentrations after the final treatment [9]: 0.5 h | CYP2D6-mediated dextromethorphan O-demethylation (CYP2D6 [10]): observed to inhibit

Cc1nc2sccn2c(=O)c1CCN1CCC(=C(c2ccc(F)cc2)c2ccc(F)cc2)CC1 [ritanserin]
antidepressant-like effects of memantine (immobility time) [11]: reverse antidepressant-like effects of an effective dose of memantine

— US11478467B2 (priority 2017, dated 2022)
